Structures can show the parent of a compound that is named as a salt. Where two headings read alike, the source gives them in different places. Marks after values point to notes of the source that are not given here.
What was measured:
[1] = target: T1, Human 5-HT1A Receptor (Homo sapiens, UniProt P08908); experiment: 8-OH-DPAT binding, human 5-HT1A receptor cell line; details: stably transfected CHO cells, 8-OH-DPAT ligand 1.5 nM; read-out: h5-HT1A Affinity, Ki
T1 construct: expressed in transfected cells; host or cells: CHO cells
T1 sequence (P08908 1-422): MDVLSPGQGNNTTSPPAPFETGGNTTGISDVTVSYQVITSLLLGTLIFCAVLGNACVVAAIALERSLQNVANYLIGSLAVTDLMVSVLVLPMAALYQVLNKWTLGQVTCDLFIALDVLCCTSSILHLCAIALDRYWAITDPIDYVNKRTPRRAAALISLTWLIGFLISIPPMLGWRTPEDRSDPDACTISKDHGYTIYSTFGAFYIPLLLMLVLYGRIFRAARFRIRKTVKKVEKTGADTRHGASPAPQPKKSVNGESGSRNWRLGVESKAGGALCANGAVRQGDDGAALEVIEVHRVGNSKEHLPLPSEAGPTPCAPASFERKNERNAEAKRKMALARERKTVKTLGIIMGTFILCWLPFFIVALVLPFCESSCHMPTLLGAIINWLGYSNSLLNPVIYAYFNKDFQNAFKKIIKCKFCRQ
Procedure, shortened: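 Membranes from CHO cells stably expressing human 5-HT1A, incubated 30 min at room temperature in 50 mM Tris pH 7.5 with 1.5 nM radioligand (8-OH-DPAT). Non-specific binding defined with […]; filtration on PEI-soaked GF/B filters. Single-point inhibition at […], then Ki for actives.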

[2] = target: T2, cloned human 5-HT1A receptors (Homo sapiens, UniProt P08908); experiment: 35S-GTPγS binding assay; assay type: biochemical; details: for IC50: superscript b, reversal of 8-OH-DPAT effect; for Imax (maximum inhibitory effect) / GTPγS, (Imax)^d: superscript d, maximum inhibitory effect; for EC50: superscript a, potency of stimulatory effect; for Emax: superscript c, maximum stimulatory effect
T2 construct: expressed in transfected cells
T2 sequence (P08908 1-422): T1 sequence (P08908 1-422)
Excerpt: The ^35S-GTPγS binding assay similar to that used by Lazareno and Birdsall (Br. J. Pharmacol., 1993, 109: 1120) was used to determine the test compound's ability to affect the binding of ^35S-GTPγS to membranes containing cloned human 5-HT1A receptors. Agonists produce an increase in binding whereas antagonists produce no increase but rather reverse the effects of the standard agonist 8-OH-DPAT. The test compound's maximum stimulatory effect is represented as the Emax, while its potency is defined by the EC50. The test compound's maximum inhibitory effect is represented as the Imax, while its potency is defined by the IC50. […] was used to determine maximum agonist or antagonist response.

[3] = target: h-5-HT-T (Homo sapiens, UniProt P31645); experiment: h-5-HT-T IC50 (Table 1, no method described)
[4] = target: T3, serotonin transporter (Rattus norvegicus, UniProt P31652); experiment: 3H-paroxetine binding to the serotonin transporter, rat frontal cortical membranes; details: values printed without parentheses, 3H-paroxetine 0.1 nM, read-out: rb-5-HH-T, Ki
T3 construct: frontal cortical membranes prepared from male S.D. rats; from tissue; host or cells: rat frontal cortex membranes (male Sprague-Dawley)
Procedure, shortened: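 Male Sprague-Dawley rat frontal cortical membranes incubated with 0.1 nM ³H-paroxetine for 60 min at 25 °C, test compound at one to eight concentrations; 10 μM fluoxetine defined specific binding. Filtration separated bound ligand, counted by scintillation. IC50 from nonlinear regression, converted to Ki by Cheng–Prusoff.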

[5] = target: T1, Human 5-HT1A Receptor; experiment: cAMP RIA in human 5-HT1A receptor cell line; assay type: cell-based; details: CHO cells; for IC50: superscript b, reversal of agonist activity, read-out: c-AMP, (IC50)^b; for EC50: superscript a, read-out: c-AMP, (EC50)^a; for EC50 / Emax / c-AMP, (Emax)^c: forskolin stimulated cAMP; for Emax / c-AMP, (Emax)^c: superscript c; for Emax: read-out: c-AMP, (Emax)^c
Procedure, shortened: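 Stably transfected CHO cells preincubated in Krebs with 500 uM IBMX, then given forskolin (1 uM final) and test compound (0.1 and 1 uM initial screen) for 10 min at 37° C; cAMP measured by RIA as % inhibition. Antagonist mode: 6 concentrations preincubated 20 min before agonist plus forskolin; IC50 for reversal.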

h-5-HT-T, sequence (P31645 whole entry): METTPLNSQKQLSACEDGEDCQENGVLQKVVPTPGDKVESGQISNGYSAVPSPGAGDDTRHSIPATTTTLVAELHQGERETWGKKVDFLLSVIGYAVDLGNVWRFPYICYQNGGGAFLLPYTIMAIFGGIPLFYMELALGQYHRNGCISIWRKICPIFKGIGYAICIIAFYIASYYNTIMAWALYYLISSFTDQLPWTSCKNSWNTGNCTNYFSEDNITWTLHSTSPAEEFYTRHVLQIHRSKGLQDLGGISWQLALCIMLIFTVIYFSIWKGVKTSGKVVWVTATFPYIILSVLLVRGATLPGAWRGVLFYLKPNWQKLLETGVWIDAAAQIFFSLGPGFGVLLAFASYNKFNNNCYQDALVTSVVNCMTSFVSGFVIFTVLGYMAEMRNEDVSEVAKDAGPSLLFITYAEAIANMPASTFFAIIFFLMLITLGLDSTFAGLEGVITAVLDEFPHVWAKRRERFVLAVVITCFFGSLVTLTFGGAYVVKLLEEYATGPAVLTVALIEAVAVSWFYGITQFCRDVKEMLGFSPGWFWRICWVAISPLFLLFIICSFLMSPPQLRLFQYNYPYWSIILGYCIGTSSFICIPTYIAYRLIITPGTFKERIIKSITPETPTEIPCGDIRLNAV
T3 sequence (P31652 whole entry): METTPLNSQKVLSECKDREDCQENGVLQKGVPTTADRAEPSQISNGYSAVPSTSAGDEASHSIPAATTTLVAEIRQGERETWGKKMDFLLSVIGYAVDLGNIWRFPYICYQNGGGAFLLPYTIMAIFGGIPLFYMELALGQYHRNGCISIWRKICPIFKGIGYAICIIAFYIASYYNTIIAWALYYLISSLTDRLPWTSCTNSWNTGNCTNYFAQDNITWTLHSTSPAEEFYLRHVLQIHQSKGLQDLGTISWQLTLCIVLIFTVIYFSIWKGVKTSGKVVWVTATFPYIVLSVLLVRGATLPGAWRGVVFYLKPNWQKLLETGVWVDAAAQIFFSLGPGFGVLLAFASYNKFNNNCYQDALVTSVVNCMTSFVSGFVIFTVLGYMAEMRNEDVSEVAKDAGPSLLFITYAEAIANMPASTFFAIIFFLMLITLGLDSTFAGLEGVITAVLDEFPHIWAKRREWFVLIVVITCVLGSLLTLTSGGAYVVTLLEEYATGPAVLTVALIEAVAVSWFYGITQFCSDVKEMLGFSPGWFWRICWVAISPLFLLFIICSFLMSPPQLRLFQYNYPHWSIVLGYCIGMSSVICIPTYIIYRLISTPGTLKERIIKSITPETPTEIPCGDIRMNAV

Work on `CCN(CC1CCc2[nH]c3ccc(F)cc3c2C1)C[C@H]1COc2ccc3nc(C)ccc3c2O1` (stereo partly drawn) [Example 50, N-[(6-Fluoro-2,3,4,9-tetrahydro-1H-carbazol-3-yl)methyl]-N-{[(2S)-8-methyl-2,3-dihydro[1,4]dioxino[2,3-f]quinolin-2-yl]methyl}ethanamine dihydrochloride dihydrate] yielded a Ki [1] of 226 nM, an IC50 [2] of 179 nM and an Imax (maximum inhibitory effect) [2] of 100%. For the same compound, the IC50 [3] was 5.73 ± 0.33 nM, the Ki [4] was 26.9 nM and the IC50 [5] was 137 nM.

For `Cc1ccc2c3c(ccc2n1)OC[C@H](CN(CC1CC1)CC1CCc2[nH]c4ccc(F)cc4c2C1)O3` (stereo partly drawn) [Example 52, (Cyclopropylmethyl)[(6-fluoro-2,3,4,9-tetrahydro-1H-carbazol-3-yl)methyl]{[(2S)-8-methyl-2,3-dihydro[1,4]dioxino[2,3-f]quinolin-2-yl]methyl}amine dihydrochloride dihydrate], the Ki [1] was 936 nM, the IC50 [2] was 1580 nM and the Imax (maximum inhibitory effect) [2] was 100%. For the same compound, the IC50 [3] was 19.5 ± 0.28 nM, the Ki [4] was 670 nM and the EC50 [5] was 312 nM. For the same compound, the Emax [5] was 70%.

Work on `Cc1ccc2c3c(ccc2n1)OC[C@H](CNCC1CCc2sc4ccccc4c2C1)O3` (single isomer, unassigned) [32 diastereomers 1] yielded a Ki [1] of 8.07 nM, an IC50 [2] of 494 nM and an Imax (maximum inhibitory effect) [2] of 100%. It also gave a Ki [4] of over 1000 nM and an IC50 [5] of 67.6 nM.

With `Cc1ccc2c3c(ccc2n1)OC[C@H](CNCCC1CCc2[nH]c4ccc(F)cc4c2C1)O3` (mixture of isomers) [Example 40, [2-(6-Fluoro-2,3,4,9-tetrahydro-1H-carbazol-3-yl)ethyl]{[(2S)-8-methyl-2,3-dihydro[1,4]dioxino[2,3-f]quinolin-2-yl]methyl}amine dihydrochloride] the Ki [1] was 680 nM, the EC50 [2] was 7.1 nM and the IC50 [2] was 75 nM. For the same compound, the Emax [2] was 46%, the Imax (maximum inhibitory effect) [2] was 34% and the IC50 [3] was 1.24 ± 0.16 nM. It also gave a Ki [4] of 48.4 nM, an EC50 [5] of 4.06 nM and an Emax [5] of 100%.

In the case of `CCCN(C[C@@H]1CCc2[nH]c3ccc(F)cc3c2C1)C[C@H]1COc2ccc3nc(C)ccc3c2O1` [Example 54, N-{[(3R)-6-Fluoro-2,3,4,9-tetrahydro-1H-carbazol-3-yl]methyl}-N-{[(2S)-8-methyl-2,3-dihydro[1,4]dioxino[2,3-f]quinolin-2-yl]methyl}propan-1-amine dihydrochloride dihydrate], the Ki [1] is reported as 617 nM, the IC50 [2] is reported as 581 nM and the Imax (maximum inhibitory effect) [2] is reported as 63%. It also gave an IC50 [3] of 16.6 ± 0.85 nM, a Ki [4] of 96.5 nM and an EC50 [5] of 177 nM. It also gave an Emax [5] of 48%.

`Cc1ccc2c3c(ccc2n1)OC[C@H](CNCC1CCc2c(sc4cc(F)ccc24)C1)O3` (single isomer, unassigned) [39 diastereomer 1] showed a Ki [1] of 7.09 nM, an IC50 [2] of 645 nM and an Imax (maximum inhibitory effect) [2] of 100%. It also gave an IC50 [3] of 2060 nM, a Ki [4] of 210 nM and an Emax ([5]; CHO) of 62%.

Compound `Cc1ccc2c3c(ccc2n1)OC[C@H](CNCC[C@H]1CCc2[nH]c4ccc(F)cc4c2C1)O3` (single isomer, unassigned) [Example 42, dihydrochloride] has a Ki [1] of 751 nM, an EC50 [2] of 63 nM and an IC50 [2] of 351 nM. The Emax [2] was 39%, the Imax (maximum inhibitory effect) [2] was 71% and the IC50 [3] was 2.8 ± 0.12 nM. It also gave a Ki [4] of 58 nM, an EC50 [5] of 36.4 nM and an Emax [5] of 87%.

In the case of `Cc1ccc2c3c(ccc2n1)OC[C@H](CNCC1CCc2c(sc4cc(F)ccc24)C1)O3` (single isomer, unassigned) [39 diastereomer 2], the Ki [1] is reported as 2.16 nM, the IC50 [2] is reported as 117 nM and the “GTPγS, (Imax)^d” value [2] is reported as 80%^d. For the same compound, the IC50 [3] was 1440 nM, the Ki [4] was 184 nM and the “c-AMP, (Emax)^c” value [5] was 75%^c.

`Cc1ccc2c3c(ccc2n1)OC[C@H](CN(CC1CC1)C[C@@H]1CCc2[nH]c4ccc(F)cc4c2C1)O3` [Example 55, (Cyclopropylmethyl){[(3R)-6-fluoro-2,3,4,9-tetrahydro-1H-carbazol-3-yl]methyl}{[(2S)-8-methyl-2,3-dihydro[1,4]dioxino[2,3-f]quinolin-2-yl]methyl}amine dihydrochloride dihydrate] gave a Ki [1] of 850 nM, an IC50 [2] of 1130 nM and an Imax (maximum inhibitory effect) [2] of 74%. For the same compound, the IC50 [3] was 8.5 ± 0.18 nM, the Ki [4] was 110 nM and the EC50 [5] was 211 nM. It also gave an Emax [5] of 67%.

For `Cc1ccc2c3c(ccc2n1)OC[C@H](CNC1CCc2c([nH]c4ccccc24)C1)O3.Cl.Cl` (mixture of isomers) [Example 43, N-{[(2S)-8-methyl-2,3-dihydro[1,4]dioxino[2,3-f]quinolin-2-yl]methyl}-2,3,4,9-tetrahydro-1H-carbazol-2-amine dihydrochloride], the Ki [1] was 432 nM, the IC50 [2] was 197 nM and the Imax (maximum inhibitory effect) [2] was 98.5%. For the same compound, the melting point was 117 to 118 °C (dec.), the IC50 [3] was 19.3 ± 2.51 nM and the Ki [4] was 45.1 nM. The EC50 [5] was 233 nM and the Emax [5] was 61%.

With `Cc1ccc2c3c(ccc2n1)OC[C@H](CN[C@H]1CCc2c([nH]c4ccccc24)C1)O3` (single isomer, unassigned) [Example 45, dihydrochloride] the Ki [1] was 365 nM, the IC50 [2] was 461 nM and the IC50 [3] was 38.95 ± 0.18 nM. It also gave a Ki [4] of 34.3 nM, an EC50 [5] of 157 nM and an Emax [5] of 59%.

In the case of `Cc1ccc2c3c(ccc2n1)OC[C@H](CNCC[C@@H]1CCc2[nH]c4ccc(F)cc4c2C1)O3` (single isomer, unassigned) [Example 41, dihydrochloride], the Ki [1] is reported as 242 nM, the EC50 [2] is reported as 24.8 nM and the Emax [2] is reported as 94%. For the same compound, the IC50 [3] was 0.58 ± 0.14 nM, the Ki [4] was 9.45 nM and the EC50 [5] was 4.13 nM. The Emax [5] was 94%.

`Cc1ccc2c3c(ccc2n1)OC[C@H](CN(C[C@@H]1CCc2[nH]c4ccc(F)cc4c2C1)C1CCC1)O3` [Example 56, N-{[(3R)-6-Fluoro-2,3,4,9-tetrahydro-1H-carbazol-3-yl]methyl}-N-{[(2S)-8-methyl-2,3-dihydro[1,4]dioxino[2,3-f]quinolin-2-yl]methyl}cyclobutanamine dihydrochloride dihydrate] gave a Ki [1] of 1730 nM, an IC50 [2] of 3100 nM and an IC50 [3] of 18.1 ± 0.39 nM. For the same compound, the Ki [4] was 127 nM, the EC50 [5] was 154 nM and the Emax [5] was 69%.

With `Cc1ccc2c3c(ccc2n1)OC[C@H](CNCC1CCc2sc4ccc(F)cc4c2C1)O3` (single isomer, unassigned) [31 diastereomer 1] the Ki [1] was 1.14 nM, the IC50 [2] was 155 nM and the “GTPγS, (Imax)^d” value [2] was 95%^d. It also gave an IC50 [3] of 337 nM, a Ki [4] of 9.9 nM and an Emax ([5]; CHO) of 62%.

With `Cc1ccc2c3c(ccc2n1)OC[C@H](CNCC1CCc2sc4ccc(F)cc4c2C1)O3` (single isomer, unassigned) [31 diastereomer 2] the Ki [1] was 3.67 nM, the IC50 [2] was 290 nM and the “GTPγS, (Imax)^d” value [2] was 65%^d. The IC50 [3] was 547 nM, the Ki [4] was 51.5 nM and the “c-AMP, (Emax)^c” value [5] was 62%^c.

With `Cc1ccc2c3c(ccc2n1)OC[C@H](CNCC1CCc2sc4ccccc4c2C1)O3` (single isomer, unassigned) [32 diastereomer 2] the Ki [1] was 6.49 nM, the IC50 [3] was 885 nM and the Ki [4] was 47.6 nM. For the same compound, the IC50 [5] was 17.7 nM.

Reference: patent publication US7297704B2, “Cycloalkyfused indole, benzothiophene, benzofuran and idene derivatives” (Wyeth, priority 2005, dated 2007)
